For one assay, the target named is PI3K α (Homo sapiens, UniProt P42336). In words: PI 3-Kinase (human) HTRF assay, PI3K α.
In the next assay the target is PI3K β (Homo sapiens, UniProt P42338). In words: PI 3-Kinase (human) HTRF assay, PI3K β.
Another assay deals with PI3K γ (Homo sapiens, UniProt P48736). In words: PI 3-Kinase (human) HTRF assay, PI3K γ.
The next assay deals with PI3K δ (Homo sapiens, UniProt O00329). Kind of assay: PI 3-Kinase (human) HTRF assay, PI3K δ.
For a further assay, the target named is T1, mTOR (Homo sapiens, UniProt P42345).
T1 construct: purchased Invitrogen
In words: mTOR kinase inhibition assay (radiometric or LanthaScreen TR-FRET). To be noted: Table 2; read-out: mTORC IC50. It is filed as biochemical.

Setting [1] is: read-out: PI3K α IC50, in vitro.
The mark [2] stands for this setting: read-out: PI3K β IC50, in vitro.
Setting [3] is: read-out: PI3K γ IC50, in vitro.
Where [4] appears, read: read-out: PI3K δ IC50, in vitro.

Read-outs that look alike come from different tables or passages of the source.

22 compounds from patent US9295673B2, “Combination of mTOR inhibitors and P13-kinase inhibitors, and uses thereof” (Intellikine LLC, priority 2011, dated 2016) can be followed below.

Chain of PI3K α (P42336 whole entry): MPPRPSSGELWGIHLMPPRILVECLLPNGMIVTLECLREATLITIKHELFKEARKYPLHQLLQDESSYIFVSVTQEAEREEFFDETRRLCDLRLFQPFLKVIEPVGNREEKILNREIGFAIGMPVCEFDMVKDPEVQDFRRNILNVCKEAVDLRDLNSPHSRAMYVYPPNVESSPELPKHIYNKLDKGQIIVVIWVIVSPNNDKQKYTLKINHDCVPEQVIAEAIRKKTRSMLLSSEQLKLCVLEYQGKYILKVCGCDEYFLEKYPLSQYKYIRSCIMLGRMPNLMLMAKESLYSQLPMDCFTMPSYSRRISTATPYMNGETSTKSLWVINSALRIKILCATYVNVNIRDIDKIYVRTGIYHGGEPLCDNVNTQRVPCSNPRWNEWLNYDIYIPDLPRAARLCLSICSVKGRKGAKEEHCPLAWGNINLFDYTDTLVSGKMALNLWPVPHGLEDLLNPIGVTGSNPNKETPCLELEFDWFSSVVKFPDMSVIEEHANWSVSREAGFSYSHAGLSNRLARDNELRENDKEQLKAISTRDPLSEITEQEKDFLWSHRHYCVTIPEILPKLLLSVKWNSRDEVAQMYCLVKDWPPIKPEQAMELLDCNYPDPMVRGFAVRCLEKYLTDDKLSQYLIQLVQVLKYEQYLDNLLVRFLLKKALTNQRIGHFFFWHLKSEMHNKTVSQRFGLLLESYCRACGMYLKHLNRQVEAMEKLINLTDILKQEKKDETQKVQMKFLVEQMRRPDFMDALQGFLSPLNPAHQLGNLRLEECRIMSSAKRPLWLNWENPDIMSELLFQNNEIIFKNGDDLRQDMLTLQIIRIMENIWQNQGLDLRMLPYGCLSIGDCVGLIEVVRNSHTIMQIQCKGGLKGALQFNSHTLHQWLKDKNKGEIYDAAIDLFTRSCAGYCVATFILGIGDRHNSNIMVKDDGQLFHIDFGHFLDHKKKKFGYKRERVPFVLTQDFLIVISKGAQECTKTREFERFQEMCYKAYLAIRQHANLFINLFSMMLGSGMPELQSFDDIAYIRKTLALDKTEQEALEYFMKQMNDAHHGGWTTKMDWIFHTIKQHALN
Chain of PI3K α (P27986 whole entry partner): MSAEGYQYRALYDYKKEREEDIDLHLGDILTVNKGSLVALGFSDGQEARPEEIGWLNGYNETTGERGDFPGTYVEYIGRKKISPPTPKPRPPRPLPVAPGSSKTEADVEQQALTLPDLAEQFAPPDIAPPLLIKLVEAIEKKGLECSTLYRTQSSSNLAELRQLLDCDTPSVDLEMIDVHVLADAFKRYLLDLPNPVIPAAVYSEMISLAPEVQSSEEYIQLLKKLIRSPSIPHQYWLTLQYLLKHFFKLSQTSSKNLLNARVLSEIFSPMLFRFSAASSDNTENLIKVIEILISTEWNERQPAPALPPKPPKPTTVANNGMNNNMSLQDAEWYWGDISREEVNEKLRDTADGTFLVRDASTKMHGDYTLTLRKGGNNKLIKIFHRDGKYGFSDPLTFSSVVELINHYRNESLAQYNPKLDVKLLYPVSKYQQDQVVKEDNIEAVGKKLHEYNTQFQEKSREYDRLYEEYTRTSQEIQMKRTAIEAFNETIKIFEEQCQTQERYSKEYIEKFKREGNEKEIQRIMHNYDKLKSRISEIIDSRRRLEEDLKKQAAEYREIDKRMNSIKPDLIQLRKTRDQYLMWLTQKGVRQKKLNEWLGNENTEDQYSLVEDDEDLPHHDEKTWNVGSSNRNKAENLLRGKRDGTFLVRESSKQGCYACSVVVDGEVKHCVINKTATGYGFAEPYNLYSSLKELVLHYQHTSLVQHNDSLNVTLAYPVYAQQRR
Chain of PI3K δ (O00329 whole entry): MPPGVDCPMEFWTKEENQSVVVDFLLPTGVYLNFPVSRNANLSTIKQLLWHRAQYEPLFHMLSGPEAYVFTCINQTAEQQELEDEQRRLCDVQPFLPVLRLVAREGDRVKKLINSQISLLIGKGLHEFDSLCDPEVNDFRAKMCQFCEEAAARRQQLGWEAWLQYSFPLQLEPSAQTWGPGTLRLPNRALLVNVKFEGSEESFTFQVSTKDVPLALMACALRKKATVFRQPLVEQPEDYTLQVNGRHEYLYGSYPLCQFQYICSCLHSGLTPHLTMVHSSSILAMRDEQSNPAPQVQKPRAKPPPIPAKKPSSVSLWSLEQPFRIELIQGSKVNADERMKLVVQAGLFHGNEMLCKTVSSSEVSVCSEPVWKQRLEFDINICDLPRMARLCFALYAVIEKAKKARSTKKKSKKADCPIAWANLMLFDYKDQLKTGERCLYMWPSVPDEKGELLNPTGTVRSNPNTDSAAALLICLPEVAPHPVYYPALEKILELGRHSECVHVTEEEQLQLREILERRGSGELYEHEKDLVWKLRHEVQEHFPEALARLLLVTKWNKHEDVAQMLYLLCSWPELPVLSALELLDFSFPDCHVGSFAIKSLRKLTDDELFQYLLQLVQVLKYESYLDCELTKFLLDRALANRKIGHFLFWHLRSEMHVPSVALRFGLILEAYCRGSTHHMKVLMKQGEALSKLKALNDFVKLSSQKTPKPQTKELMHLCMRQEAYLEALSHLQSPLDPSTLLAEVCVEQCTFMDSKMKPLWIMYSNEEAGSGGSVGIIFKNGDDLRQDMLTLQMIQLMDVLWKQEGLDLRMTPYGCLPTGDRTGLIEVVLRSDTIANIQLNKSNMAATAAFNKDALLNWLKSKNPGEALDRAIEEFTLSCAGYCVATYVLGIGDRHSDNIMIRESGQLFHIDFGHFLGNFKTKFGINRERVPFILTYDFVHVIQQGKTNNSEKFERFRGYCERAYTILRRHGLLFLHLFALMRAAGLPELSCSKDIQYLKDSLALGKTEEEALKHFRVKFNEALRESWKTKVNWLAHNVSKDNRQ
Chain of PI3K δ (P27986 whole entry partner): as the sequence (P27986 whole entry partner) above
Chain of PI3K β (P42338 whole entry): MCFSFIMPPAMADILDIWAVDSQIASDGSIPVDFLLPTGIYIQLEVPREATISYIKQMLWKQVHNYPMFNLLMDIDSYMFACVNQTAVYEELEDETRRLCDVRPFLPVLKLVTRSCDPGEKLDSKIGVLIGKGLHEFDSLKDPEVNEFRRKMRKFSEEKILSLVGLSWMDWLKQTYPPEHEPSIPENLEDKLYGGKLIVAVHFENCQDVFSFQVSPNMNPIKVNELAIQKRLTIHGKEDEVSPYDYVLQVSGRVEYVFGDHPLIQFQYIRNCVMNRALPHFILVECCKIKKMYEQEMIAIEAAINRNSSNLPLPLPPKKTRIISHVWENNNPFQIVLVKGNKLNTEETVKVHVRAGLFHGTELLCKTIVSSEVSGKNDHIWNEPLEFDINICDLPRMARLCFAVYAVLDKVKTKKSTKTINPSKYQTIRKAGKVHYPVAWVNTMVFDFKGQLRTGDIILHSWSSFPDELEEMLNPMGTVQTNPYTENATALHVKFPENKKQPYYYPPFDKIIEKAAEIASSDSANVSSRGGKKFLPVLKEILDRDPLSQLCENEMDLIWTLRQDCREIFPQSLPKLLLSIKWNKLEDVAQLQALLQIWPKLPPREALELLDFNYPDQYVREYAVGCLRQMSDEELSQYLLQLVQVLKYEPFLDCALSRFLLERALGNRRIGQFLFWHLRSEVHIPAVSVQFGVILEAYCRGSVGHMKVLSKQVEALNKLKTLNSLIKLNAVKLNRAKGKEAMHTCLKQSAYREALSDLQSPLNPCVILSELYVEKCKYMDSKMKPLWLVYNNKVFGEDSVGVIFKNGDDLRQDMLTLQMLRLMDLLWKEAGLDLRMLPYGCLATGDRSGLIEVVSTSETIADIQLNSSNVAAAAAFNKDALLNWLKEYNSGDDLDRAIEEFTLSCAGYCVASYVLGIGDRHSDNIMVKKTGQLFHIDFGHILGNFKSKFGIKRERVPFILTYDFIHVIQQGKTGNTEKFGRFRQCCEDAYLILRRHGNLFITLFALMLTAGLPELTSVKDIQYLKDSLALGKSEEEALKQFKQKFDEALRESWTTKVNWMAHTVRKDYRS
Chain of PI3K β (P27986 whole entry partner): as the sequence (P27986 whole entry partner) above
Chain of PI3K γ (P48736 whole entry): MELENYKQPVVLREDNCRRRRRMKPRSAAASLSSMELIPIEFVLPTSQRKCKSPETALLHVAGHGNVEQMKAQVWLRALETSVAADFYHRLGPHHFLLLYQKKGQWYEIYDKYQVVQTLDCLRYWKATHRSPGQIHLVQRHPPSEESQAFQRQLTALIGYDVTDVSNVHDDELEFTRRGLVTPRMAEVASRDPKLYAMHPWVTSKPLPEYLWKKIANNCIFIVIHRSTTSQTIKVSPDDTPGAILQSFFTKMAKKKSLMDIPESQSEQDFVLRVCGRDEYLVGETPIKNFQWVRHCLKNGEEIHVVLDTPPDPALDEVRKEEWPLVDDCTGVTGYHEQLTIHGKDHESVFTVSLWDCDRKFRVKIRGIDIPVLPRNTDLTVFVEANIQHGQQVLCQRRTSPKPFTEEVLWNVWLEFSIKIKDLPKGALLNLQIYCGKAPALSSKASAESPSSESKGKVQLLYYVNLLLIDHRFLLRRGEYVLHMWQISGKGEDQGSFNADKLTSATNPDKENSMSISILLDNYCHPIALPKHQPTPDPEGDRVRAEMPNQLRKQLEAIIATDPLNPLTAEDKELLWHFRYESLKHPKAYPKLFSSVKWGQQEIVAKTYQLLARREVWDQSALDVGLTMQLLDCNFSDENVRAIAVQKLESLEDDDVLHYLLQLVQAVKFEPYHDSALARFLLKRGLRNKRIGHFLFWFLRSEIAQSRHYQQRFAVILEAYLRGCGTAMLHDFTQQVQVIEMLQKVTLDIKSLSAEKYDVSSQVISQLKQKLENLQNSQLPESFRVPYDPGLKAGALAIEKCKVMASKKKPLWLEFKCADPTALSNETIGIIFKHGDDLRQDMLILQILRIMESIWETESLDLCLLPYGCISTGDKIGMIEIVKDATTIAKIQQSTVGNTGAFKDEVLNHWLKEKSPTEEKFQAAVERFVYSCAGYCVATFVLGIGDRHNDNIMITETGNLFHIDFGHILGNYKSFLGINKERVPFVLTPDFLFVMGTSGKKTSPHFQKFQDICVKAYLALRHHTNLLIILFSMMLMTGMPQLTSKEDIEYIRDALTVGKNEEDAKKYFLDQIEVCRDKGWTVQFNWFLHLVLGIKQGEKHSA
Experimental for PI3K α: (§1) An exemplary system is PI 3-Kinase (human) HTRF™ Assay from Upstate. […] Briefly, the assay is a time resolved FRET assay that indirectly measures PIP3 product formed by the activity of a PI3-K. The kinase reaction is performed in a microtitre plate (e.g., a 384 well microtitre plate). The total reaction volume is approximately 20 ul per well. In the first step, each well receives 2 ul of test compound in 20% dimethylsulphoxide resulting in a 2% DMSO final concentration. […] The plate is sealed and incubated for 15 minutes at room temperature. […] The plate is sealed and incubated for 1 hour at room temperature. The reaction is stopped by adding 5 ul of Stop Solution per well and then 5 ul of Detection Mix is added per well. The plate is sealed, incubated for 1 hour at room temperature, and then read on an appropriate plate reader. Data is analyzed and IC50s are generated using GraphPad Prism 5.
Experimental for PI3K β: as §1
Experimental for mTOR: The compounds described herein can be tested against recombinant mTOR (Invitrogen) in an assay containing 50 mM HEPES, pH 7.5, 1 mM EGTA, 10 mM MgCl2, 2.5 mM, 0.01% Tween, 10 μM ATP (2.5 μCi of μ-32P-ATP), and 3 mg/mL BSA. Rat recombinant PHAS-1/4EBP1 (Calbiochem; 2 mg/mL) is used as a substrate. Reactions are terminated by spotting onto nitrocellulose, which is washed with 1M NaC1/1% phosphoric acid (approximately 6 times, 5-10 minutes each). Sheets are dried and the transferred radioactivity quantitated by phosphorimaging.
For instance, one can use Invitrogen's LanthaScreen™ Kinase assay to test the inhibitors of mTOR disclosed herein. This assay is a time resolved FRET platform that measures the phosphorylation of GFP labeled 4EBP1 by mTOR kinase. The kinase reaction is performed in a white 384 well microtitre plate. The total reaction volume is 20 ul per well and the reaction buffer composition is 50 mM HEPES pH7.5, 0.01% Polysorbate 20, 1 mM EGTA, 10 mM MnCl2, and 2 mM DTT. In the first step, each well receives 2 ul of test compound in 20% dimethylsulphoxide resulting in a 2% DMSO final concentration. […] The plate is sealed and incubated for 1 hour at room temperature. […] The plate is sealed, incubated for 1 hour at room temperature, and then read on a plate reader set up for LanthaScreen™ TR-FRET. Data is analyzed and IC50s are generated using GraphPad Prism 5.

Regarding `Nc1nsc2cc(-c3ccc4nccc(-c5ccncc5)c4c3)ccc12` [Compound 13], the IC50 is less than 0.1 µM against PI3K α, less than 1 µM against PI3K β, less than 1 µM against PI3K γ and less than 1 µM against PI3K δ.

On to `COC(=O)Nc1noc2ccc(-c3nn(C(C)C)c4ncnc(N)c34)cc12` [Compound 20], for which the IC50 at PI3K α and on PI3K δ was less than 10 µM each time.

`COc1cc2cc(-c3nn(C(C)C)c4ncnc(N)c34)[nH]c2cc1Cl` [Compound 29]: on mTOR, the IC50 is greater than 0.5 µM.

For the compound `Nc1nc2cc(-c3ccc4ncc(C(=O)N5CCOCC5)n4c3)ccc2o1` [Compound 54], the half-maximal inhibitory concentration (IC50) at PI3K α (read-out: PI3K α IC50) was less than 0.1 µM.

`Nc1nc2cc(-c3ccc4ncc(NC5CCC(O)CC5)nc4c3)ccc2o1` (stereo not drawn) [Compound 128]: the half-maximal inhibitory concentration (IC50) at PI3K α (read-out: PI3K α IC50) was less than 0.1 µM; at PI3K β (read-out: PI3K β IC50), less than 10 µM; at PI3K γ (read-out: PI3K γ IC50), less than 0.1 µM; on PI3K δ (read-out: PI3K δ IC50), less than 0.1 µM.

Turning to `CC(=O)Nc1nc2ccc(-c3nc(N4CCOCC4)c4sc(CN5CCN(S(C)(=O)=O)CC5)cc4n3)cc2s1` [Compound 130], the IC50 on PI3K α (read-out: PI3K α IC50), on PI3K β (read-out: PI3K β IC50), at PI3K γ (read-out: PI3K γ IC50) and on PI3K δ (read-out: PI3K δ IC50) was greater than 10 µM each time.

As to `CCN1CCN(C(=O)c2cnc3ncc(-c4ccc5oc(N)nc5c4)cn23)CC1` [Compound 141], the IC50 against PI3K α is less than 1 µM; against PI3K β, greater than 10 µM; against PI3K γ, less than 10 µM; at PI3K δ, greater than 10 µM.

Take `Nc1nc2cc(-c3ccc4ncc(C(=O)N5CCN(CC6CC6)CC5)n4c3)ccc2o1` [Compound 161]: the IC50 is less than 1 µM at PI3K α (read-out: PI3K α IC50), less than 10 µM on PI3K β (read-out: PI3K β IC50), less than 10 µM on PI3K γ (read-out: PI3K γ IC50) and less than 10 µM at PI3K δ (read-out: PI3K δ IC50).

Turning to `CC(C)[C@H](N)C(=O)N1CCN(c2cnc3ccc(-c4ccc5oc(N)nc5c4)cc3n2)CC1` [Compound 269], the concentration for half-maximal inhibition (IC50) at PI3K α (read-out: PI3K α IC50) is less than 0.1 µM; on PI3K β (read-out: PI3K β IC50), less than 1 µM; at PI3K δ (read-out: PI3K δ IC50) it was less than 1 µM.

Take `Cc1ccc(NC(=O)c2cnc3ccc(-c4ccc5oc(N)nc5c4)cn23)cn1` [Compound 294]: the IC50 on PI3K α (read-out: PI3K α IC50) was less than 0.1 µM; on PI3K β (read-out: PI3K β IC50) it was greater than 10 µM; at PI3K γ (read-out: PI3K γ IC50), less than 0.1 µM; on PI3K δ (read-out: PI3K δ IC50), less than 10 µM.

On to `CN1CCN(CCNC(=O)c2cnc3ccc(-c4ccc5oc(N)nc5c4)cn23)CC1` [Compound 306], for which the IC50 at PI3K α (read-out: PI3K α IC50) was less than 0.1 µM; on PI3K β (read-out: PI3K β IC50) it was less than 1 µM; on PI3K δ (read-out: PI3K δ IC50), less than 1 µM.

As to `C[C@H]1CN(c2cnc3ccc(-c4ccc5oc(N)nc5c4)cc3n2)CCN1C` [Compound 332], the IC50 at PI3K α (read-out: PI3K α IC50) was less than 1 µM; on PI3K β (read-out: PI3K β IC50), less than 0.1 µM; on PI3K δ (read-out: PI3K δ IC50), less than 10 µM.

As for `C[C@H]1CN(c2cnc3scc(-c4ccc5oc(N)nc5c4)c3n2)CCN1` [Compound 399], the 50% inhibitory concentration (IC50) against PI3K α, against PI3K β, at PI3K γ and at PI3K δ was greater than 10 µM throughout.

For `Nc1cc(-c2ccc3ncc(C(=O)N4CCOCC4)n3c2)cnc1Cl` [Compound 415], the IC50 at PI3K α (setting [1]) is less than 10 µM; at PI3K β (setting [2]), greater than 10 µM; on PI3K γ (setting [3]), greater than 10 µM; at PI3K δ (setting [4]), greater than 10 µM.

On to `COc1ccc(CNc2n[nH]c3cc(-c4ccc5oc(N)nc5c4)ccc23)cc1` [Compound 429], for which the half-maximal inhibitory concentration (IC50) at PI3K α (setting [1]), at PI3K β (setting [2]), on PI3K γ (setting [3]) and at PI3K δ (setting [4]) was greater than 10 µM throughout.

Turning to `CNS(=O)(=O)c1cc(-c2ccc3ncc(C(=O)N4CCOCC4)n3c2)ccc1OC` [Compound 445], the half-inhibitory concentration (IC50) at PI3K α (setting [1]), on PI3K β (setting [2]), on PI3K γ (setting [3]) and at PI3K δ (setting [4]) was greater than 10 µM in each case.

Consider `O=C(c1cnc2ccc(-c3ccc(Cl)c(NS(=O)(=O)c4ccc(F)cc4F)c3)cn12)N1CCOCC1` [Compound 461], for which the values for the concentration for half-maximal inhibition (IC50) on PI3K α (setting [1]), on PI3K β (setting [2]) and at PI3K δ (setting [4]) were less than 1 µM, less than 10 µM and less than 10 µM, respectively.

As for `[2H]C1([2H])OC([2H])([2H])C([2H])([2H])N(C(=O)c2cnc3ccc(-c4ccc5oc(N)nc5c4)cn23)C1([2H])[2H]` [Compound 529], the IC50 on PI3K α (setting [1]) was less than 1 µM; at PI3K β (setting [2]), greater than 10 µM; at PI3K δ (setting [4]), greater than 10 µM.

As to `[2H]c1c(-c2ccc3ncc(C(=O)N4CCOCC4)n3c2)c([2H])c2nc(N)oc2c1[2H]` [Compound 531], the figures for the IC50 on PI3K α (setting [1]), on PI3K β (setting [2]) and at PI3K δ (setting [4]) were less than 0.1 µM, less than 10 µM and greater than 10 µM, respectively.

Take `O=C(c1cnc2ccc(-c3cnc4cc[nH]c4c3)cn12)N1CCOCC1` [Compound 534]: at PI3K α (setting [1]), the IC50 is less than 10 µM.

As to `Cc1ncc(-c2ccc3ncc(C(=O)N4CCOCC4)n3c2)c2cc[nH]c12` [Compound 536], at PI3K α (setting [1]), the IC50 was less than 10 µM.

In the case of `Cn1ncc2c(-c3ccc4ncc(C(=O)N5CCOCC5)n4c3)cncc21` [Compound 537], the concentration for half-maximal inhibition (IC50) on PI3K α (setting [1]) and at PI3K γ (setting [3]) was less than 10 µM each time.
